c1ccc2c(c1)sc1ccccc12
solubility (mole fraction) (in acetonitrile, 278.15 K): 0.00126
solubility (mole fraction) (in acetonitrile, 283.15 K): 0.00163
solubility (mole fraction) (in acetonitrile, 288.65 K): 0.00192
solubility (mole fraction) (in acetonitrile, 293.15 K): 0.00242
solubility (mole fraction) (in acetonitrile, 298.15 K): 0.0029
solubility (mole fraction) (in acetonitrile, 303.15 K): 0.00331
solubility (mole fraction) (in acetonitrile, 308.15 K): 0.00406
solubility (mole fraction) (in acetonitrile, 313.15 K): 0.00478
solubility (mole fraction) (in acetonitrile, 318.15 K): 0.0056
solubility (mole fraction) (in acetonitrile, 323.15 K): 0.00668
solubility (mole fraction) (in acetonitrile, 328.15 K): 0.00782
solubility (mole fraction) (in acetonitrile, 333.15 K): 0.00917
solubility (mole fraction) (in methanol, 278.15 K): 0.00454
solubility (mole fraction) (in methanol, 283.15 K): 0.00611
solubility (mole fraction) (in methanol, 288.65 K): 0.00845
solubility (mole fraction) (in methanol, 293.15 K): 0.0118
solubility (mole fraction) (in methanol, 298.15 K): 0.0152
solubility (mole fraction) (in methanol, 303.15 K): 0.0189
solubility (mole fraction) (in methanol, 308.15 K): 0.0241
solubility (mole fraction) (in methanol, 313.15 K): 0.0321
solubility (mole fraction) (in methanol, 318.15 K): 0.0402
solubility (mole fraction) (in methanol, 323.15 K): 0.0506
solubility (mole fraction) (in methanol, 328.15 K): 0.0639
solubility (mole fraction) (in methanol, 333.15 K): 0.0839
